US20050107423A1, “Quinolone antibacterial agents” (priority 2003, published 2005)
≈ marks a conversion by molar mass, not a printed value.

Columns and labels:
Assay in all cases: Antibacterial assay, microtitration MIC (Test A)
Type in all cases: cell-based
E. coli EC-2549 = conditions: Escherichia coli, EC2549, Gram Negative Bacteria; strain EC-2549; read-out: Minimum Inhibitory Concentrations E. coli EC-2549
Protocol: (§1) The compounds of the present invention were tested against an assortment of Gram-negative and Gram-positive organisms using standard microtitration techniques (Cohen et. al., Antimicrob., 1985;28:766; Heifetz, et. al., Antimicrob., 1974;6:124). The results of the evaluation are shown in Tables 1A and B, wherein “-” means no data.

M. catarrhalis BC-3531 = conditions: Moraxella catarrhalis, BC3531, Gram Negative Bacteria; strain BC-3531; read-out: Minimum Inhibitory Concentrations M. catarrhalis BC-3531
Protocol: as §1

H. influenzae HI-3542 = conditions: Haemophilus influenzae, HI3542, Gram Negative Bacteria; strain HI-3542; read-out: Minimum Inhibitory Concentrations H. influenzae HI-3542
Protocol: as §1

E. faecalis MGH-2 = conditions: strain MGH-2; for MIC: Enterococcus faecalis, MGH2, Gram Positive Bacteria, read-out: Minimum Inhibitory Concentrations E. faecalis MGH-2; for Minimum Inhibitory Concentrations E. faecalis MGH-2: Gram Positive Bacteria
Protocol: as §1

S pyogenes C203 = conditions: Gram Positive Bacteria, strain C203; for MIC: read-out: Minimum Inhibitory Concentrations S pyogenes C203
Protocol: as §1

S. pneumo SV-1 = conditions: Gram Positive Bacteria, strain SV-1; for MIC: read-out: Minimum Inhibitory Concentrations S. pneumo SV-1
Protocol: as §1

Compound | MIC (E. faecalis MGH-2) [mg/L] | MIC (S pyogenes C203) [mg/L] | MIC (S. pneumo SV-1) [mg/L] | other results
CC(O)(CO)C1CCN(c2c(F)cc3c(=O)c(C(=O)O)cn(C4CC4)c3c2Cl)C1 (centres unmarked) [drawing 339] | – | – | – | MIC (E. coli EC-2549): 0.125 mg/L (≈ 0.294 µM); MIC (M. catarrhalis BC-3531): 0.03 mg/L (≈ 0.0706 µM); MIC (H. influenzae HI-3542): 0.16 mg/L (≈ 0.377 µM)
CCOC[C@@H]1CN(c2c(F)cc3c(=O)c(C(=O)O)cn(C4CC4)c3c2C)C[C@@H]1CO [drawing 390] | – | – | – | MIC (E. coli EC-2549): 0.125 mg/L (≈ 0.299 µM); MIC (M. catarrhalis BC-3531): 0.03 mg/L (≈ 0.0717 µM); MIC (H. influenzae HI-3542): 0.03 mg/L (≈ 0.0717 µM)
Cc1c(N2CCC(C(O)(CO)C(F)(F)F)C2)c(F)cc2c(=O)c(C(=O)O)cn(C3CC3)c12 (centres unmarked) [drawing 371] | 0.25 (≈ 0.545 µM) | 0.25 (≈ 0.545 µM) | 0.25 (≈ 0.545 µM) | –
Nc1nc(-n2cc(C(=O)O)c(=O)c3cc(F)c(N4C[C@@H]5CC[C@@H](O)[C@@H]5C4)c(Cl)c32)c(F)cc1F [drawing 455] | 0.25 (≈ 0.505 µM) | 0.25 (≈ 0.505 µM) | 0.125 (≈ 0.253 µM) | –
O=C(O)c1cn(C2CC2)c2c(Cl)c(N3CCC(C(O)CO)C3)c(F)cc2c1=O (centres unmarked) [drawing 357] | 0.06 (≈ 0.146 µM) | 0.03 (≈ 0.073 µM) | 0.06 (≈ 0.146 µM) | –
Cc1c(N2CCC(C(O)CO)C2)c(F)cc2c(=O)c(C(=O)O)cn(C3CC3)c12 (centres unmarked) [drawing 356] | 2 (≈ 5.12 µM) | 1 (≈ 2.56 µM) | 1 (≈ 2.56 µM) | –
Cc1c(N2CCC(C(C)O)C2)c(F)cc2c(=O)c(C(=O)O)cn(C3CC3)c12 (centres unmarked) [drawing 346] | – | – | – | Minimum Inhibitory Concentrations E. faecalis MGH-2 (E. faecalis MGH-2): 0.06 µg/mL; Minimum Inhibitory Concentrations S pyogenes C203 (S pyogenes C203): 0.06 µg/mL; Minimum Inhibitory Concentrations S. pneumo SV-1 (S. pneumo SV-1): 0.06 µg/mL
Nc1nc(-n2cc(C(=O)O)c(=O)c3cc(F)c(N4CCC(C(O)CO)C4)c(Cl)c32)c(F)cc1F (centres unmarked) [drawing 359] | 0.5 (≈ 1 µM) | 0.5 (≈ 1 µM) | 0.5 (≈ 1 µM) | –
O=C(O)c1cn(C2CC2)c2nc(N3CCC(C(O)C(F)F)C3)c(F)cc2c1=O (centres unmarked) [drawing 352] | 0.125 (≈ 0.315 µM) | 0.25 (≈ 0.629 µM) | 0.25 (≈ 0.629 µM) | –
Cc1c(N2CCC(C(O)C(F)(F)F)C2)c(F)cc2c(=O)c(C(=O)O)cn(C3CC3)c12 (centres unmarked) [drawing 364] | – | – | – | Minimum Inhibitory Concentrations E. faecalis MGH-2 (E. faecalis MGH-2): 0.06 µg/mL; Minimum Inhibitory Concentrations S pyogenes C203 (S pyogenes C203): 0.5 µg/mL; Minimum Inhibitory Concentrations S. pneumo SV-1 (S. pneumo SV-1): 0.125 µg/mL
COc1c(N2CCC(C(O)C3(CO)CC3)C2)c(F)cc2c(=O)c(C(=O)O)cn(C3CC3)c12 (centres unmarked) [drawing 320] | – | – | – | MIC (E. coli EC-2549): 0.25 mg/L (≈ 0.56 µM); MIC (H. influenzae HI-3542): 0.03 mg/L (≈ 0.0672 µM)
COc1c(N2CCC(C(O)c3ccc(S(C)(=O)=O)o3)C2)c(F)cc2c(=O)c(C(=O)O)cn(C3CC3)c12 (centres unmarked) [drawing 348] | 0.5 (≈ 0.961 µM) | 0.5 (≈ 0.961 µM) | 0.5 (≈ 0.961 µM) | –
O=C(O)c1cn(C2CC2)c2c(Cl)c(N3CCC(C(O)C4(CO)CC4)C3)c(F)cc2c1=O (centres unmarked) [drawing 354] | 0.125 (≈ 0.277 µM) | 0.125 (≈ 0.277 µM) | 0.125 (≈ 0.277 µM) | –
Nc1nc(-n2cc(C(=O)O)c(=O)c3cc(F)c(N4CCC(C(O)CO)C4)cc32)c(F)cc1F (centres unmarked) [drawing 358] | 0.125 (≈ 0.269 µM) | 0.125 (≈ 0.269 µM) | 0.06 (≈ 0.129 µM) | –
CC(O)(CO)C1CCN(c2c(F)cc3c(=O)c(C(=O)O)cn(C4CC4)c3c2Cl)C1 (centres unmarked) [drawing 372] | 0.25 (≈ 0.588 µM) | 0.25 (≈ 0.588 µM) | 0.25 (≈ 0.588 µM) | –

Second part, led by results:

MIC (E. faecalis MGH-2) [mg/L] | MIC (S pyogenes C203) [mg/L] | MIC (S. pneumo SV-1) [mg/L] | Compound | other results
0.06 (≈ 0.16 µM) | 0.06 (≈ 0.16 µM) | 0.03 (≈ 0.0801 µM) | Cc1c(N2CCC(C(C)O)C2)c(F)cc2c(=O)c(C(=O)O)cn(C3CC3)c12 (centres unmarked) [drawing 344] | –
0.06 (≈ 0.149 µM) | 0.03 (≈ 0.0745 µM) | 0.03 (≈ 0.0745 µM) | COc1c(N2CC(CO)C3(CC3)C2)c(F)cc2c(=O)c(C(=O)O)cn(C3CC3)c12 (centres unmarked) [drawing 429] | –
0.06 (≈ 0.147 µM) | 0.06 (≈ 0.147 µM) | 0.03 (≈ 0.0737 µM) | O=C(O)c1cn(C2CC2)c2c(Cl)c(N3CC(CO)C4(CC4)C3)c(F)cc2c1=O (centres unmarked) [drawing 430] | –
0.5 (≈ 0.931 µM) | 1 (≈ 1.86 µM) | 0.5 (≈ 0.931 µM) | Nc1nc(-n2cc(C(=O)O)c(=O)c3cc(F)c(N4CCC(C(O)C(F)(F)F)C4)c(Cl)c32)c(F)cc1F (centres unmarked) [drawing 366] | –
0.125 (≈ 0.29 µM) | 0.25 (≈ 0.58 µM) | 0.125 (≈ 0.29 µM) | O=C(O)c1cn(C2CC2)c2c(Cl)c(N3CCC(C(O)C(F)F)C3)c(F)cc2c1=O (centres unmarked) [drawing 350] | –
0.125 (≈ 0.265 µM) | 0.25 (≈ 0.529 µM) | 0.125 (≈ 0.265 µM) | COc1c(N2CCC(C)(C(O)CC(F)(F)F)C2)c(F)cc2c(=O)c(C(=O)O)cn(C3CC3)c12 (centres unmarked) [drawing 376] | –
0.25 (≈ 0.56 µM) | 0.25 (≈ 0.56 µM) | 0.125 (≈ 0.28 µM) | COc1c(N2CCC(C(O)C3(CO)CC3)C2)c(F)cc2c(=O)c(C(=O)O)cn(C3CC3)c12 (centres unmarked) [drawing 353] | –
0.5 (≈ 0.931 µM) | 0.5 (≈ 0.931 µM) | 0.125 (≈ 0.233 µM) | CC(=O)O[C@@H]1CC[C@H]2CN(c3c(F)cc4c(=O)c(C(=O)O)cn(-c5nc(N)c(F)cc5F)c4c3Cl)C[C@H]21 [drawing 456] | –
0.06 (≈ 0.134 µM) | 0.5 (≈ 1.12 µM) | 0.125 (≈ 0.279 µM) | Nc1c(F)c(N2CCC(C(O)C(F)(F)F)C2)c(F)c2c1c(=O)c(C(=O)O)cn2C1CC1 (centres unmarked) [drawing 365] | –
